# Measurements as given in the supplement of paper PMC10307832.
# How the values were obtained:
# Experiment in all cases: relative viability (nuclei count vs DMSO), 5 days (fraction); higher = more cells survive
# [1] = compound: CO[C@@H]1[C@H](N(C)C(=O)c2ccccc2)C[C@H]2O[C@]1(C)n1c3ccccc3c3c4c(c5c6ccccc6n2c5c31)C(=O)NC4 [Midostaurin] + O=C(CCCCCCC(=O)Nc1ccccc1)NO [Vorinostat] (partner 1 µM)
# Summary of the method: (§1)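 Lung cancer cell lines in 1536-well plates were dosed by pin tool the day after seeding, either with one drug alone or with a fixed anchor-drug dose plus five library-drug doses (not always all listed) in √10 steps. After 5 days, cells were fixed and their nuclei stained in one step (final 0.05% Triton X-100, 1% formaldehyde, 1 ug/ml Hoechst), then counted on 4× images. Relative viability is the nuclei count in treated wells divided by that in vehicle wells. Values are medians of duplicate plates.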
# [2] = compound: COc1cc(-c2nn([C@H]3CC[C@H](N4CCN(C(C)=O)CC4)CC3)c3ncnc(N)c23)ccc1NC(=O)c1cc2ccccc2n1C + C[C@@H](Oc1cc(-c2cnn(C3CCNCC3)c2)cnc1N)c1c(Cl)ccc(F)c1Cl [Crizotinib] (partner 1 µM)
# Summary of the method: as §1
# [3] = compound: CO[C@@H]1[C@H](N(C)C(=O)c2ccccc2)C[C@H]2O[C@]1(C)n1c3ccccc3c3c4c(c5c6ccccc6n2c5c31)C(=O)NC4 [Midostaurin] + O=C(c1cc(Cc2n[nH]c(=O)c3ccccc23)ccc1F)N1CCN(C(=O)C2CC2)CC1 [Olaparib] (partner 8 µM)
# Summary of the method: as §1
# [4] = compound: CO[C@@H]1[C@H](N(C)C(=O)c2ccccc2)C[C@H]2O[C@]1(C)n1c3ccccc3c3c4c(c5c6ccccc6n2c5c31)C(=O)NC4 [Midostaurin] + NC(=O)Nc1cc(-c2cccc(F)c2)sc1C(=O)N[C@H]1CCCNC1 [AZD7762] (partner 0.2 µM)
# Summary of the method: as §1
# [5] = compound: COc1cc(-c2nn([C@H]3CC[C@H](N4CCN(C(C)=O)CC4)CC3)c3ncnc(N)c23)ccc1NC(=O)c1cc2ccccc2n1C + COc1cc2c(Oc3ccc(NC(=O)C4(C(=O)Nc5ccc(F)cc5)CC4)cc3F)ccnc2cc1OCCCN1CCOCC1 [Foretinib] (partner 0.25 µM)
# Summary of the method: as §1
Cell Line,relative viability ([1]; first compound 0.01 µM),relative viability ([1]; first compound 0.03162 µM),relative viability ([1]; first compound 0.1 µM),relative viability ([1]; first compound 0.3162 µM),relative viability ([2]; first compound 0.0128 µM),relative viability ([2]; first compound 0.04048 µM),relative viability ([2]; first compound 0.128 µM),relative viability ([2]; first compound 1.28 µM),relative viability ([3]; first compound 0.01 µM),relative viability ([3]; first compound 0.03162 µM),relative viability ([3]; first compound 0.1 µM),relative viability ([3]; first compound 0.3162 µM),relative viability ([4]; first compound 0.01 µM),relative viability ([4]; first compound 0.03162 µM),relative viability ([4]; first compound 0.1 µM),relative viability ([4]; first compound 0.3162 µM),relative viability ([5]; first compound 0.0128 µM),relative viability ([5]; first compound 0.04048 µM),relative viability ([5]; first compound 0.128 µM),relative viability ([5]; first compound 1.28 µM)
HCC-15,0.942,0.806,0.785,0.765,0.89,0.772,0.808,0.67,0.747,0.734,0.678,0.641,1.16,0.98,0.532,1.07,1.13,1.09,0.94,0.877
HCC-78,0.545,0.438,0.365,0.312,0.338,0.432,0.325,0.18,0.836,0.753,0.677,0.511,0.682,1.09,0.644,0.483,0.544,0.733,0.467,0.376
HCC-366,0.364,0.306,0.308,0.0688,0.692,0.679,0.546,0.281,0.336,0.358,0.302,0.117,0.235,0.373,0.273,0.0975,0.948,0.841,0.98,0.757
HCC-827,0.869,0.724,0.897,0.873,0.903,0.963,0.94,0.685,0.582,0.628,0.589,0.654,0.246,0.206,0.237,0.215,0.998,0.943,1.02,0.756
HOP-62,0.545,0.607,0.676,0.5,0.887,0.957,0.803,0.714,0.321,0.452,0.414,0.372,0.527,0.568,0.727,0.553,1.16,1.12,1.07,1.03
LC-2-ad,0.692,0.644,0.775,0.459,0.443,0.399,0.414,0.409,0.738,0.688,0.673,0.691,0.873,0.878,0.843,0.724,0.932,0.976,0.886,0.662
LCLC-97TM1,0.668,0.534,0.635,0.756,0.364,0.409,0.359,0.519,0.52,0.374,0.32,0.464,0.169,0.287,0.223,0.275,1.06,0.692,0.864,0.887
LCLC-103H,0.824,0.717,0.806,0.792,1.17,1.22,0.993,1.07,0.746,0.813,0.717,0.805,0.789,0.782,0.682,0.787,0.774,0.972,0.616,0.65
LK-2,0.252,0.258,0.328,0.277,0.215,0.259,0.187,0.199,0.686,0.612,0.878,0.791,0.494,0.408,0.346,0.679,1.34,1.24,1.05,0.761
LOU-NH91,0.933,0.882,0.947,0.983,0.745,0.811,0.753,0.638,0.922,0.828,0.88,0.943,0.791,0.724,0.778,0.809,0.991,0.99,0.968,0.922
LU99A,0.672,0.433,0.454,0.479,0.629,0.522,0.545,0.696,0.261,0.295,0.257,0.207,0.29,0.441,0.303,0.255,0.96,0.895,0.857,0.821
LXF-289,0.772,0.734,0.756,0.689,0.863,0.794,0.864,0.98,1.13,1.05,1.04,0.992,1.14,1.13,1.07,1.09,1.05,0.962,0.986,1.03
NCI-H23,0.514,0.68,0.54,0.243,0.534,0.533,0.458,0.376,0.317,0.296,0.296,0.223,0.215,0.265,0.281,0.14,1.22,1.03,0.797,0.651
NCI-H322M,0.877,0.849,0.994,1.28,0.999,0.871,0.767,0.878,0.703,0.72,0.698,0.779,0.504,0.703,0.533,0.582,1.03,1.11,0.878,0.785
NCI-H358,0.625,0.536,0.391,0.197,0.563,0.619,0.586,0.368,0.511,0.48,0.531,0.575,0.475,0.513,0.571,0.391,0.766,0.626,0.685,0.279
NCI-H441,0.846,0.801,0.801,0.585,0.841,0.621,0.655,0.705,0.475,0.677,0.458,0.427,1.15,0.888,0.984,1.1,1.09,1.29,0.998,0.89
NCI-H460,0.697,0.578,0.65,0.115,0.854,1.01,0.966,0.682,0.406,0.417,0.314,0.382,0.678,0.626,0.635,0.704,1,1.13,0.916,0.975
NCI-H596,0.554,0.645,0.625,0.877,0.943,1.2,1.01,0.64,0.77,0.691,0.722,0.777,1.25,1.13,1.1,1.05,0.884,0.835,0.709,0.558
NCI-H647,0.591,0.988,0.536,0.275,1.03,0.858,0.886,0.541,0.495,0.688,0.455,0.316,0.576,0.392,0.41,0.324,1.16,1.44,1.21,0.806
NCI-H650,0.431,0.474,0.875,0.412,0.665,0.716,0.603,0.739,0.36,0.406,0.412,0.313,1.01,1.04,0.942,1.11,1.02,1.24,1.07,1.02
NCI-H727,1.4,1.11,1.16,1.26,0.745,–,0.626,0.587,0.659,0.62,0.628,0.68,0.616,0.696,0.947,0.639,0.915,–,0.831,0.587
NCI-H838,0.72,0.705,0.606,0.262,0.809,0.854,0.759,0.534,0.748,0.839,0.511,0.229,0.843,0.892,0.848,0.865,1.01,0.989,0.973,0.604
NCI-H1355,0.665,0.672,0.619,0.667,1.15,1.07,1.06,0.946,0.777,0.78,0.77,0.68,0.703,0.798,0.766,0.674,1,0.958,0.988,0.883
NCI-H1437,0.869,0.833,0.818,0.654,1.06,0.877,0.922,0.846,0.618,0.665,0.629,0.516,1.14,1.1,1.06,1.11,1.34,1.31,1.29,1.29
NCI-H1651,0.566,0.571,0.566,0.593,0.902,0.908,0.81,0.712,0.199,0.2,0.169,0.17,0.455,0.557,0.459,0.478,0.911,0.886,0.969,0.692
NCI-H1666,1.12,0.985,1.02,0.999,0.909,0.904,0.97,0.827,0.709,0.708,0.694,0.673,0.881,0.804,0.911,0.778,0.971,0.881,0.957,0.947
NCI-H1734,0.796,0.818,0.855,0.467,0.745,0.596,0.669,0.56,0.603,0.562,0.62,0.69,0.498,0.537,0.543,0.39,0.877,0.683,0.897,0.536
